# Test results taken from US20080271210A1, “Oryza Sativa Lectin-Like Receptor Kinase 1 (Oslrk1), a Gene Involved in Plant Development” (Temasek Life Sciences Laboratory National University of …, priority 2004, published 2008).
# Experiments:
# Assay type in all cases: in vivo, Oryza sativa
# Oslrk8 = assay: RT-PCR of Oslrks in treated 2 week-old seedlings; settings: treated vs control
# Protocol: (§1) RT-PCRs were carried out on RNA samples isolated from 2 week-old seedlings treated with various sugar (FIG. 13), hormone (FIG. 14), and abiotic stresses (FIG. 15) using primers designated to either 3′ or 5′ Untranslated Regions (UTRs) of the 15 Oslrks found in Table 2. For each Oslrk two lanes in the gel are found, the first lane is the control and the second one treatment samples.
# (§2) Table 3 provides a summary of all the above referenced data on the Oslrks, showing the RT-PCR results of various treatments, including sugar, hormone and abiotic stress and northern blot results on various tissues of rice plant grown in normal conditions, and the ESTs, or cDNAs availability in the database. In the table, “I” represents induced expression and “R” represents repressed expression.
# Oslrk12 = assay: RT-PCR of Oslrks in treated 2 week-old seedlings; settings: treated vs control
# Protocol: as §1, §2
# Oslrk14 = assay: RT-PCR of Oslrks in treated 2 week-old seedlings; settings: treated vs control
# Protocol: as §1, §2
# Oslrk10 = assay: RT-PCR of Oslrks in treated 2 week-old seedlings; settings: treated vs control
# Protocol: as §1, §2
# Oslrk2 = assay: RT-PCR of Oslrks in treated 2 week-old seedlings; settings: treated vs control
# Protocol: as §1, §2
# Oslrk5 = assay: RT-PCR of Oslrks in treated 2 week-old seedlings; settings: treated vs control
# Protocol: as §1, §2
# Oslrk6 = assay: RT-PCR of Oslrks in treated 2 week-old seedlings; settings: treated vs control
# Protocol: as §1, §2
# Oslrk11 = assay: RT-PCR of Oslrks in treated 2 week-old seedlings; settings: treated vs control
# Protocol: as §1, §2
# Oslrk1 = assay: RT-PCR of Oslrks in treated 2 week-old seedlings; settings: treated vs control
# Protocol: as §1, §2
# Oslrk4 = assay: RT-PCR of Oslrks in treated 2 week-old seedlings; settings: treated vs control
# Protocol: as §1, §2
# Oslrk1 gene [1] = assay: Northern-blot of Oslrk1 transcript in WT seedlings treated with hormones and SA; settings: 100 uM, 24 hours, WT seedlings
# From the text: Differential Regulation of Oslrk1 Gene Expression by Hormones. Receptor-like kinases were postulated to be involved in signal transduction events as they perceive a signal via a ligand-binding extracellular domain and transmit it through the serine/threonine kinase domain into the cytosol (Shiu and Bleecker, 2001). In order to know possible factors influencing the Oslrk1 gene regulation, we analyzed promoter of the Oslrk1 (1.5 kb) for the presence of cis-acting elements using the program PlantCARE (Lescot et al., 2002). Three TGAGC motifs observed in MeJA inducible genes were found in promoter of the Oslrk1 at the positions −186, −657 and −1190. Apart from these, three GA3 inducible motifs (P-box-CCTTxt) −101, −206 and −740 bp upstream of the Oslrk1 ORF were located. In addition, five salicylic acid inducible motifs (TCA-elementcAGAAa/ga) at the positions of −321, −601, −604, −855 and −1135 were detected. The presence of MeJA, GA and SA responsive cis-elements in the Oslrk1 promoter indicated possible regulatory roles of these factors. The promoter analysis led us to study the effect of different hormones and compounds on the Oslrk1 transcription. The WT seeds were germinated for […] then seedlings were transferred to the medium containing one of the following chemicals: […], MeJA, GA3 or ABA at concentration 100 uM and SA (5 mM) for 24 hours (Materials and Methods). The total RNA isolated from the untreated and treated seedlings were used in Northern-blot hybridization using 3′ UTR of the Oslrk1 gene as a probe. The treatment with GA3 and SA repressed the Oslrk1 gene expression (FIG. 8A) by 2.5 and 3.3 times respectively. […] In order to confirm the level of induction of the Oslrk1 gene by MeJA over time, in another series of experiments, a time course was performed after hormone treatment. Seven day old seedlings were sprayed with 100 uM of MeJA solution and they were harvested in 1, 2, 4, 6, 8, and 12 hours.
# RNA Isolation and Northern-blot Analysis. RNA was isolated from different organs of rice plant at different developmental stages (roots of 10-14 days old seedlings and 2 months old plants, 10-14 days old seedlings, young and mature leaves, panicles at the flowering stage and calli) using a RNeasy Plant mini kit (Qiagen,). The RNA (10 ug) was fractionated on a 1.2% denaturating formaldehyde agarose gel and transferred onto a Hybond-N^+ membrane (Amersham). The bolts were hybridized with dogoxigenin (DIG)-labeled probes in DIG Easy Hyb solution (Roche) at 50° C. After hybridization, membranes were washed twice with 2×SSC and 0.1% SDS for 15 min, then twice with 0.5×SSC and 0.1% SDS for 15 min at 68° C. Detection was carried out according to manufacturer using DIG Wash and Block Buffer set and chemiluminescent substrate CDP Star™ (Roche). DIG-labelled probe corresponded to 3′UTR and lectin domain of Oslrk1 was used. For the control of RNA quantity, DIG-probe corresponding to rice Actin1 gene was synthesized using the following primers: […]
# (§3) The RT-PCRs and Northern blots were repeated at least thrice and similar results were obtained. The quantification of the intensity of the hybridization signals was performed using Quantity ONE 4.5.0 software in Gel doc XR documentation system (Bio-Rad Laboratories, Inc., USA). The level of actual expression was calculated as a ratio of intensity of specific signal (Oslrk1 3′UTR probe) to the intensity of signal of positive control (rice Act1).
# Treatment of WT Seedlings with Hormones and Sugars. Two week old WT seedlings were transferred to MS medium containing 100 μM of different hormones, such as Indole 3-Acetic Acid (IAA), Abscisic acid (ABA), Methyl Jasmonate (MeJA), or Gibbrellic Acid (GA3) and 5 mM of Salicylic Acid (SA), and were grown for 24 hours under normal day/light conditions. Total RNA was extracted from root of the seedlings and whole seedlings. […]
# Oslrk9 = assay: RT-PCR of Oslrks in treated 2 week-old seedlings; settings: treated vs control
# Protocol: as §1, §2
# [2] = tested on: Oslrk1 mutant seeds and seedlings; assay: Germination and growth of Oslrk1 mutant seeds in galactose/mannose containing media
# From the text: (§4) The altered expression of the Oslrk1 by different sugars described above led us to study the response of the mutant to these monosaccharides and sucrose. The WT and the mutant seeds were germinated and grown in Gal, Man, Glu, Fm along with Suc at different concentrations (ranging from 0.1% to 1%) and Suc alone containing medium as a control. The following parameters were taken into account during observation: the shoot length, the number and the length of adventitious roots and the germination rate. […] Out of these three sugars tested, Man was selected as an example as its inhibitory effect was similar in seeds and seedlings of WT and mutant as shown in FIGS. 10A and B. The seed germination was severely affected by Man.
# (§5) At 1.0% of the Gal, the shoot length decreased by half in the mutant, whereas only by 15% in the WT seedlings. […] Apart from this, the germination rate of the WT seeds dropped to 85% whereas in the mutant it dropped to 30%.
# (§6) Germination of WT and mutant seeds in galactose/mannose containing media. WT and mutant seeds were germinated separately on MS medium containing 0.8% agar and 1% sucrose. In addition, D(+)galactose/D(+/−)mannose was added in different concentrations (0.1, 0.2, 0.5, and 1.0%) along with a control (MS with 1% of sucrose). At 14 days after germination, the observations for adventitious root number and length (cm), shoot length (cm) and germination rate (%) were recorded.
# Oslrk1 gene [3] = assay: Northern-blot of Oslrk1 transcript in WT seedlings treated with sugars; settings: sugars 175 mM, 48 hours, Mannitol as osmotic control
# Protocol: Lectins are known as carbohydrate-binding proteins that specifically recognize diverse sugar structures (Vijayan and Chandra, 1999). […] Five different sugars: glucose (Glu), sucrose (Suc), fructose (Fm), Gal and Man were used for this study along with Mannitol as an osmotic control (Methods). Northern-blot hybridizations were carried out on the total RNA isolated from treated seedlings.
# RNA Isolation and Northern-blot Analysis. RNA was isolated from different organs of rice plant at different developmental stages (roots of 10-14 days old seedlings and 2 months old plants, 10-14 days old seedlings, young and mature leaves, panicles at the flowering stage and calli) using a RNeasy Plant mini kit (Qiagen,). […] For the control of RNA quantity, DIG-probe corresponding to rice Actin1 gene was synthesized using the following primers: […]
# as §3, with “Act1). […]” for “Act1).”
# WT seeds and seedlings = assay: Germination and growth of WT seeds in galactose/mannose containing media
# From the text: as §4, §5, §6
# Oslrk15 = assay: RT-PCR of Oslrks in treated 2 week-old seedlings; settings: treated vs control
# Protocol: as §1, §2
Compound,"Oslrk8 expression by RT-PCR, Sh (Oslrk8)","Oslrk14 expression by RT-PCR, Sh (Oslrk14)","Oslrk10 expression by RT-PCR, Rt (Oslrk10)","Oslrk2 expression by RT-PCR, Rt (Oslrk2)","Oslrk2 expression by RT-PCR, Sh (Oslrk2)","Oslrk5 expression by RT-PCR, Rt (Oslrk5)","Oslrk5 expression by RT-PCR, Sh (Oslrk5)","Oslrk11 expression by RT-PCR, Sh (Oslrk11)","Oslrk4 expression by RT-PCR, Rt (Oslrk4)","Oslrk4 expression by RT-PCR, Sh (Oslrk4)",effect on Oslrk1 transcription (Oslrk1 gene [1]),further results
"CC1=CC(=O)CC(C)(C)[C@@]1(O)/C=C/C(C)=C\C(=O)O [ABA, Abscisic acid]",I,I,R,I,I,I,I,I,I,I,no significant effect,"Oslrk12 expression by RT-PCR, Sh (Oslrk12): I; Oslrk6 expression by RT-PCR, Sh (Oslrk6): R; Oslrk1 expression by RT-PCR, Sh (Oslrk1): R"
"O=C[C@H](O)[C@@H](O)[C@@H](O)[C@H](O)CO [Gal, galactose]",I,I,–,I,R,I,I,R,–,I,–,"Oslrk10 expression by RT-PCR, Sh (Oslrk10; Sh): I; Oslrk9 expression by RT-PCR, Sh (Oslrk9): I; Oslrk11 expression by RT-PCR, Rt (Oslrk11; Rt): I; length of adventitious roots ([2]; Oslrk1 mutant, 1.0% Gal): severe reduction; number of the adventitious roots reduced by ([2]; Oslrk1 mutant, 1.0% Gal): 85%; shoot length decreased by ([2]; Oslrk1 mutant, 1.0% Gal): half; germination rate ([2]; Oslrk1 mutant, Gal (1.0%)): 30%; behavior of the mutant compared with the WT upon treatment ([2]; sugar 0.1% to 1% along with Suc): differential response; Oslrk1 expression in response to sugars (Oslrk1 gene [3]): Repression; length of adventitious roots (WT seeds and seedlings; 1.0% Gal): reduced; number of the adventitious roots (WT seeds and seedlings; 1.0% Gal): more or less same; shoot length decreased by (WT seeds and seedlings; 1.0% Gal): 15%; germination rate (WT seeds and seedlings; Gal (1.0%)): 85%"
"O=C(O)Cc1c[nH]c2ccccc12 [IAA, Indole 3-Acetic Acid]",–,–,I,–,–,I,–,–,I,–,no significant effect,"Oslrk8 expression by RT-PCR, Rt (Oslrk8; Rt): I; Oslrk15 expression by RT-PCR, Rt (Oslrk15): I"
